Measurements published in US9156845B2, “4-(substituted amino)-7H-pyrrolo[2,3-d] pyrimidines as LRRK2 inhibitors” (Pfizer Inc., priority 2012, dated 2015).
Where two headings read alike, the source gives them in different places.

Key:
[1] = target: GST-tagged truncated LRRK2 (Homo sapiens (Human), UniProt Q5S007); test: LRRK2 Lantha Screen kinase assay; type: biochemical; settings: geometric mean of 2-5 determinations unless otherwise indicated (a: >=6 determinations; b: single determination); read-out: LRRK2 WT IC50
AKT1 = AKT1 (Homo sapiens (Human), UniProt P31749); test: ActivX kinase probe assay (human PBMC); type: binding; settings: read-out: percent inhibition
BTK = BTK (Homo sapiens (Human), UniProt Q06187); test: ActivX kinase probe assay (human PBMC); type: binding; settings: read-out: percent inhibition
DNAPK = DNAPK (Homo sapiens (Human), UniProt P78527); test: ActivX kinase probe assay (human PBMC); type: binding; settings: read-out: percent inhibition
Erk5 = Erk5 (Homo sapiens (Human), UniProt Q13164); test: ActivX kinase probe assay (human PBMC); type: binding; settings: read-out: percent inhibition
FER = FER (Homo sapiens (Human), UniProt P16591); test: ActivX kinase probe assay (human PBMC); type: binding; settings: read-out: percent inhibition
HPK1 = HPK1 (Homo sapiens (Human), UniProt Q92918); test: ActivX kinase probe assay (human PBMC); type: binding; settings: read-out: percent inhibition
IKKa = IKKa (Homo sapiens (Human), UniProt O15111); test: ActivX kinase probe assay (human PBMC); type: binding; settings: read-out: percent inhibition
IRAK1 = IRAK1 (Homo sapiens (Human), UniProt P51617); test: ActivX kinase probe assay (human PBMC); type: binding; settings: read-out: percent inhibition
IRAK4 = IRAK4 (Homo sapiens (Human), UniProt Q9NWZ3); test: ActivX kinase probe assay (human PBMC); type: binding; settings: read-out: percent inhibition
IRE1 = IRE1 (Homo sapiens (Human), UniProt O75460); test: ActivX kinase probe assay (human PBMC); type: binding; settings: read-out: percent inhibition
JAK1 = JAK1 (Homo sapiens (Human), UniProt P23458); test: ActivX kinase probe assay (human PBMC); type: binding; settings: read-out: percent inhibition
MAP2K4 = MAP2K4 (Homo sapiens (Human), UniProt P45985); test: ActivX kinase probe assay (human PBMC); type: binding; settings: read-out: percent inhibition
MAP3K1 = MAP3K1 (Homo sapiens (Human), UniProt Q13233); test: ActivX kinase probe assay (human PBMC); type: binding; settings: read-out: percent inhibition
MARK2 = MARK2 (Homo sapiens (Human), UniProt Q7KZI7); test: ActivX kinase probe assay (human PBMC); type: binding; settings: read-out: percent inhibition
MST1 = MST1 (Homo sapiens (Human), UniProt Q13043); test: ActivX kinase probe assay (human PBMC); type: binding; settings: read-out: percent inhibition
MST1, MST2 = test: ActivX kinase probe assay (human PBMC); type: binding
MST2 = MST2 (Homo sapiens (Human), UniProt Q13188); test: ActivX kinase probe assay (human PBMC); type: binding; settings: read-out: percent inhibition
NuaK2 = NuaK2 (Homo sapiens (Human), UniProt Q9H093); test: ActivX kinase probe assay (human PBMC); type: binding; settings: read-out: percent inhibition
PAN3 = PAN3 (Homo sapiens (Human), UniProt Q58A45); test: ActivX kinase probe assay (human PBMC); type: binding; settings: read-out: percent inhibition
PCTAIRE2, PCTAIRE3 = test: ActivX kinase probe assay (human PBMC); type: binding
PIK3C3 = PIK3C3 (Homo sapiens (Human), UniProt Q8NEB9); test: ActivX kinase probe assay (human PBMC); type: binding; settings: read-out: percent inhibition
PIK3CD = PIK3CD (Homo sapiens (Human), UniProt O00329); test: ActivX kinase probe assay (human PBMC); type: binding; settings: read-out: percent inhibition
PIP4K2C = PIP4K2C (Homo sapiens (Human), UniProt Q8TBX8); test: ActivX kinase probe assay (human PBMC); type: binding
RSK1 domain1 = RSK1 domain1 (Homo sapiens (Human), UniProt Q15418); test: ActivX kinase probe assay (human PBMC); type: binding; settings: read-out: percent inhibition
RSK1 domain2 = RSK1 domain2 (Homo sapiens (Human), UniProt Q15418); test: ActivX kinase probe assay (human PBMC); type: binding; settings: read-out: percent inhibition
RSK2 domain2 = RSK2 domain2 (Homo sapiens (Human), UniProt P51812); test: ActivX kinase probe assay (human PBMC); type: binding; settings: read-out: percent inhibition
SRC = SRC (Homo sapiens (Human), UniProt P12931); test: ActivX kinase probe assay (human PBMC); type: binding; settings: read-out: percent inhibition
TLK1 = TLK1 (Homo sapiens (Human), UniProt Q9UKI8); test: ActivX kinase probe assay (human PBMC); type: binding; settings: read-out: percent inhibition
[2] = PIP4K2C (first line of two), read-out: percent inhibition
[3] = PIP4K2C (second line of two), read-out: percent inhibition
[4] = read-out: percent inhibition, PIP4K2C (first line of two)
[5] = read-out: percent inhibition, PIP4K2C (second line of two)

Erk5, sequence (Q13164 whole entry): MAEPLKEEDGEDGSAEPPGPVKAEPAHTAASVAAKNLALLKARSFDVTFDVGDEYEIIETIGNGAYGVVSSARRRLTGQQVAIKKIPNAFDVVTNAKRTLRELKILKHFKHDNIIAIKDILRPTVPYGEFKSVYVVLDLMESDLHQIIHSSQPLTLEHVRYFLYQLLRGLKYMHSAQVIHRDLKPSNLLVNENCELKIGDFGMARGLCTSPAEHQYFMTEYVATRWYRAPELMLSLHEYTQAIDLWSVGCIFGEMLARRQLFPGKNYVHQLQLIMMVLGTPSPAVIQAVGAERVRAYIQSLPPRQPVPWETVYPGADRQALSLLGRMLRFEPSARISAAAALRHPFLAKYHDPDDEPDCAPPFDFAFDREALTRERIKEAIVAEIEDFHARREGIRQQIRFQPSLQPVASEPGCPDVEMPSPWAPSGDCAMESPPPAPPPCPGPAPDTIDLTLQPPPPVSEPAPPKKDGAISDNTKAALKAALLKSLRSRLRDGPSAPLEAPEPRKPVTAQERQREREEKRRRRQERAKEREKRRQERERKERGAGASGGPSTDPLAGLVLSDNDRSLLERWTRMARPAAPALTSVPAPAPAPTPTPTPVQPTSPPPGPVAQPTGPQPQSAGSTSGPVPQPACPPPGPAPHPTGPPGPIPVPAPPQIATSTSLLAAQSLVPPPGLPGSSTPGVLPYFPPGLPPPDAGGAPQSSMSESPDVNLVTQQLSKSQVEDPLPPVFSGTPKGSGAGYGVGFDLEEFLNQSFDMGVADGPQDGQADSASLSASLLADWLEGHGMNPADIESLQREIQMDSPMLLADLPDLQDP
PIP4K2C, sequence (Q8TBX8 whole entry, the tested form may be a part): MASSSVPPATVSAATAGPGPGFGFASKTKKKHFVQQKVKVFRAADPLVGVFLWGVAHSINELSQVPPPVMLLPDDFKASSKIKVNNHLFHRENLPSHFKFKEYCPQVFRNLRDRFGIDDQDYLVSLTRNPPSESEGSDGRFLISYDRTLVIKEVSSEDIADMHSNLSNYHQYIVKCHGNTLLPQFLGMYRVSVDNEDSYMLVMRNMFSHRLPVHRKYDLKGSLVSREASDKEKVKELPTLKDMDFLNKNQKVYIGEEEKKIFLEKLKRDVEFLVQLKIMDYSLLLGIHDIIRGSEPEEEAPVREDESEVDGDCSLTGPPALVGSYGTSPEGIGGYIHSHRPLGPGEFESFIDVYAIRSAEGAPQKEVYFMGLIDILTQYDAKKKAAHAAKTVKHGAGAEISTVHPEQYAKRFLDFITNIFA
MAP2K4, sequence (P45985 whole entry): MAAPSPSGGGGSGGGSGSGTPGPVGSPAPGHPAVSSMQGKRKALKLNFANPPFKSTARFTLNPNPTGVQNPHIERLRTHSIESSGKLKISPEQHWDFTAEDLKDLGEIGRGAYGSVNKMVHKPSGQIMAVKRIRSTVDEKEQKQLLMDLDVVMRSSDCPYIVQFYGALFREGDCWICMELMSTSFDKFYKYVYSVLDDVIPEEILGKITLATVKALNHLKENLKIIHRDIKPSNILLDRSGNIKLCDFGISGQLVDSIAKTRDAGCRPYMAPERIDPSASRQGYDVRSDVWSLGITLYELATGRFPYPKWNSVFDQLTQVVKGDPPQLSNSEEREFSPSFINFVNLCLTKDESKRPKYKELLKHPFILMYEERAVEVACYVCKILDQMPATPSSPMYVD
MARK2, sequence (Q7KZI7 whole entry): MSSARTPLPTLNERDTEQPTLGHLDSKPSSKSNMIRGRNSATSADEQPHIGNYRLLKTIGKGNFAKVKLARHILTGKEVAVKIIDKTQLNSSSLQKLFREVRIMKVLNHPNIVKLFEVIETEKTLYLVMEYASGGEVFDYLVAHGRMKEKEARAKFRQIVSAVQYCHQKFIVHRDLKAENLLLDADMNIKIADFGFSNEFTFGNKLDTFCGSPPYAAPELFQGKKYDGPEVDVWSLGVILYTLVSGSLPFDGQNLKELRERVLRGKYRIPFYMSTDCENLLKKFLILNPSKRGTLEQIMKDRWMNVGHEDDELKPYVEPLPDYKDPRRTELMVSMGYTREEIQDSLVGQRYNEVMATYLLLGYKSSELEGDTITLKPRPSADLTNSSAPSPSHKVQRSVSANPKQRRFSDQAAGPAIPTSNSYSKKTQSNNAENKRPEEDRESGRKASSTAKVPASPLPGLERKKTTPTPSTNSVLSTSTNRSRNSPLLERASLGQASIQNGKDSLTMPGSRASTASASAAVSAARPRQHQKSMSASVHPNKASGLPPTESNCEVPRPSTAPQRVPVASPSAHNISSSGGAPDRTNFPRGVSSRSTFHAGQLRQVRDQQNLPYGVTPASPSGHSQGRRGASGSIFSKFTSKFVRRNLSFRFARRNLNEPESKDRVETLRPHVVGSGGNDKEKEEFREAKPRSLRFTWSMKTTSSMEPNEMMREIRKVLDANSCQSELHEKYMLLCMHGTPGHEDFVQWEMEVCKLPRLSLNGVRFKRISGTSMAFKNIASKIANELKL
TLK1, sequence (Q9UKI8 whole entry): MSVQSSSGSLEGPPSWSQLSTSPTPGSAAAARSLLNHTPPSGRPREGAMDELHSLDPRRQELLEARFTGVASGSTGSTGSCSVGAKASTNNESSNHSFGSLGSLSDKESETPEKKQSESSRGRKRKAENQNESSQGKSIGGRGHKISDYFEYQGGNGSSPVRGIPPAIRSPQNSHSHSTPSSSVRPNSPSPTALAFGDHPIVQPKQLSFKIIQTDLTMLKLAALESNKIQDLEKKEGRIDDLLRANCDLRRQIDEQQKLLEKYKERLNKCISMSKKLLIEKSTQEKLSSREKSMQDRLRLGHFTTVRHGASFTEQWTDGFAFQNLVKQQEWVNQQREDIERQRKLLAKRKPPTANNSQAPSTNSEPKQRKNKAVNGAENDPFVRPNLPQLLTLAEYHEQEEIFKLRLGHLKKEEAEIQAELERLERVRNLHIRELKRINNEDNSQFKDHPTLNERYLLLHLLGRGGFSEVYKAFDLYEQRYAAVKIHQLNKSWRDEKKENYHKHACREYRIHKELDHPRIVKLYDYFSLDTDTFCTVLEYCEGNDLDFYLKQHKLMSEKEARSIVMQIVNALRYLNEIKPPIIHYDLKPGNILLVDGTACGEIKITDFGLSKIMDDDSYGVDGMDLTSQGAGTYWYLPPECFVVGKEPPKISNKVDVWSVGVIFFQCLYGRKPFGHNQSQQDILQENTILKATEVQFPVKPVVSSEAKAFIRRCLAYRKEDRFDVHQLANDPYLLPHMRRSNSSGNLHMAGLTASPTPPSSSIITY
IKKa, sequence (O15111 whole entry): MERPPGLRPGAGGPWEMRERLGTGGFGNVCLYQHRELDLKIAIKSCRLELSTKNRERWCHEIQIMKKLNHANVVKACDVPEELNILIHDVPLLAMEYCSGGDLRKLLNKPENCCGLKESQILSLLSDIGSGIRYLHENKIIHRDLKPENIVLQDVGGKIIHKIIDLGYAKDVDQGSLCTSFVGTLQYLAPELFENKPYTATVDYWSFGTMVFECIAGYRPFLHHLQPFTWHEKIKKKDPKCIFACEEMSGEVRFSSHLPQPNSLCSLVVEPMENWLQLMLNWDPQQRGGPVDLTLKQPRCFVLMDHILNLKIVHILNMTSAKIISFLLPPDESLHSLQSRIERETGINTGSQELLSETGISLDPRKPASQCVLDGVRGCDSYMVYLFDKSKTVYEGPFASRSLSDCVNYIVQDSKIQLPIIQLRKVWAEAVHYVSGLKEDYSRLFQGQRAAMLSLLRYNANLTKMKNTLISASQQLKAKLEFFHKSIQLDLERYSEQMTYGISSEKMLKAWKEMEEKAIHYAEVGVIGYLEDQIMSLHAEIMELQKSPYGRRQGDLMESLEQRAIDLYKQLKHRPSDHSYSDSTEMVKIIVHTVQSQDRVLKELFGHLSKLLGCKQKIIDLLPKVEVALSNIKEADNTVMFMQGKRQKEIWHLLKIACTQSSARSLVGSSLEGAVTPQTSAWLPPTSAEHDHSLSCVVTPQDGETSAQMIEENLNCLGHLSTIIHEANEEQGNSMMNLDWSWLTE
BTK, sequence (Q06187 whole entry): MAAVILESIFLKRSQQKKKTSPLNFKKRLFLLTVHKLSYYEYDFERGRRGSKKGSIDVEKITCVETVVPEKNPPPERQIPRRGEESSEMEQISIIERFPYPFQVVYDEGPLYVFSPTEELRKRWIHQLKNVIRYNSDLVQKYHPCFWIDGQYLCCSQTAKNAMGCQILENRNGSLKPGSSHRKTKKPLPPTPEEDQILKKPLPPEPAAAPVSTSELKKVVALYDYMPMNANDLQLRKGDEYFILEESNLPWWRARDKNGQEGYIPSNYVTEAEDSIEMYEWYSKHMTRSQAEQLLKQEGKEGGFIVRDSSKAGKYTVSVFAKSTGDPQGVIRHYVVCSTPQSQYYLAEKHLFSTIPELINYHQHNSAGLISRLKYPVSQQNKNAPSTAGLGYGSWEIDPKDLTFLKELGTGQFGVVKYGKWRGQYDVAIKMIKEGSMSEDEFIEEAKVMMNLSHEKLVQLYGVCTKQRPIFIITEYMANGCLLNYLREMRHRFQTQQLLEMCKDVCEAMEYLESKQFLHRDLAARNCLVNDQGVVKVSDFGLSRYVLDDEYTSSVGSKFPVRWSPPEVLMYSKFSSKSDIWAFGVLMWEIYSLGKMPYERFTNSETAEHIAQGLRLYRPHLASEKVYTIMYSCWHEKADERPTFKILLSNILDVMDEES

Cn1cc(-c2c[nH]c3ncnc(N4CCOCC4)c23)cc1C#N [Example 217, 1-methyl-4-[4-(morpholin-4-yl)-7H-pyrrolo[2,3-d]pyrimidin-5-yl]-1H-pyrrole-2-carbonitrile]
IC50 [1]: 6.37 nM
inhibition at 0.1 µM (AKT1; AKT1, 0.1 μM): 5.5%
inhibition at 1 µM (AKT1; AKT1, 1 μM): -3.6%
inhibition at 0.1 µM (BTK; BTK, 0.1 μM): 24.3%
inhibition at 1 µM (BTK; BTK, 1 μM): 8.5%
inhibition at 0.1 µM (DNAPK; DNAPK, 0.1 μM): 31%
inhibition at 1 µM (DNAPK; DNAPK, 1 μM): 31.5%
inhibition at 0.1 µM (Erk5; Erk5, 0.1 μM): -2.6%
inhibition at 1 µM (Erk5; Erk5, 1 μM): -5.4%
inhibition at 0.1 µM (FER; FER, 0.1 μM): 5.2%
inhibition at 1 µM (FER; FER, 1 μM): 16.3%
inhibition at 0.1 µM (HPK1; HPK1, 0.1 μM): -13.7%
inhibition at 1 µM (HPK1; HPK1, 1 μM): 1.7%
inhibition at 0.1 µM (IKKa; IKKa, 0.1 μM): -2.5%
inhibition at 1 µM (IKKa; IKKa, 1 μM): -3.7%
inhibition at 0.1 µM (IRAK1; IRAK1, 0.1 μM): -1.7%
inhibition at 1 µM (IRAK1; IRAK1, 1 μM): 7.5%
inhibition at 0.1 µM (IRAK4; IRAK4, 0.1 μM): 14.7%
inhibition at 1 µM (IRAK4; IRAK4, 1 μM): 34.5%
inhibition at 0.1 µM (IRE1; IRE1, 0.1 μM): 3.2%
inhibition at 1 µM (IRE1; IRE1, 1 μM): -19.5%
inhibition at 0.1 µM (JAK1; JAK1, 0.1 μM): -3%
inhibition at 1 µM (JAK1; JAK1, 1 μM): 11.4%
inhibition at 0.1 µM (MAP2K4; MAP2K4, 0.1 μM): 2.3%
inhibition at 1 µM (MAP2K4; MAP2K4, 1 μM): 1.6%
inhibition at 0.1 µM (MAP3K1; MAP3K1, 0.1 μM): -17.3%
inhibition at 1 µM (MAP3K1; MAP3K1, 1 μM): 14.8%
inhibition at 0.1 µM (MARK2; MARK2, 0.1 μM): -5%
inhibition at 1 µM (MARK2; MARK2, 1 μM): 13.1%
inhibition at 0.1 µM (MST1; 0.1 μM): 25.6%
inhibition at 1 µM (MST1; 1 μM): 73.5%
percent inhibition (MST1, MST2; 0.1 μM): 21.9%
percent inhibition (MST1, MST2; 1 μM): 72.6%
inhibition at 0.1 µM (MST2; 0.1 μM): 34.9%
inhibition at 1 µM (MST2; 1 μM): 83.2%
inhibition at 0.1 µM (NuaK2; NuaK2, 0.1 μM): 1.3%
inhibition at 1 µM (NuaK2; NuaK2, 1 μM): 24.9%
inhibition at 0.1 µM (PAN3; PAN3, 0.1 μM): 5.6%
inhibition at 1 µM (PAN3; PAN3, 1 μM): -7.5%
percent inhibition (PCTAIRE2, PCTAIRE3; 0.1 μM): −2.6%
percent inhibition (PCTAIRE2, PCTAIRE3; 1 μM): 15.1%
inhibition at 0.1 µM (PIK3C3; PIK3C3, 0.1 μM): 19.9%
inhibition at 1 µM (PIK3C3; PIK3C3, 1 μM): 10.2%
inhibition at 0.1 µM (PIK3CD; PIK3CD, 0.1 μM): -0.4%
inhibition at 1 µM (PIK3CD; PIK3CD, 1 μM): 10%
inhibition at 0.1 µM (PIP4K2C; [2]): 6.2%
inhibition at 1 µM (PIP4K2C; [2]): -11.9%
inhibition at 0.1 µM (PIP4K2C; [3]): -4.7%
inhibition at 1 µM (PIP4K2C; [3]): 4%
inhibition at 0.1 µM (RSK1 domain1; RSK1 domain1, 0.1 μM): 27.6%
inhibition at 1 µM (RSK1 domain1; RSK1 domain1, 1 μM): 45.6%
inhibition at 0.1 µM (RSK1 domain2; RSK1 domain2, 0.1 μM): -3.4%
inhibition at 1 µM (RSK1 domain2; RSK1 domain2, 1 μM): 5%
inhibition at 0.1 µM (RSK2 domain2; RSK2 domain2, 0.1 μM): -4.1%
inhibition at 1 µM (RSK2 domain2; RSK2 domain2, 1 μM): 2.8%
inhibition at 0.1 µM (SRC; SRC, 0.1 μM): -1%
inhibition at 1 µM (SRC; SRC, 1 μM): 1.1%
inhibition at 0.1 µM (TLK1; TLK1, 0.1 μM): 7.6%
inhibition at 1 µM (TLK1; TLK1, 1 μM): 16.7%

N#Cc1cccc(-c2c[nH]c3ncnc(N4CCOCC4)c23)c1 [Example 4, 3-[4-(Morpholin-4-yl)-7H-pyrrolo[2,3-d]pyrimidin-5-yl]benzonitrile]
IC50 [1]: 3 nM
inhibition at 0.1 µM (AKT1): -8.8%
inhibition at 1 µM (AKT1): -6.3%
inhibition at 0.1 µM (BTK): -2.2%
inhibition at 1 µM (BTK): 9.5%
inhibition at 0.1 µM (DNAPK): -19.3%
inhibition at 1 µM (DNAPK): 14.7%
inhibition at 0.1 µM (Erk5): -5%
inhibition at 1 µM (Erk5): -6.3%
inhibition at 0.1 µM (FER): -26.4%
inhibition at 1 µM (FER): 1.6%
inhibition at 0.1 µM (HPK1): -1.5%
inhibition at 1 µM (HPK1): 5.7%
inhibition at 0.1 µM (IKKa): -12.1%
inhibition at 1 µM (IKKa): -6.6%
inhibition at 0.1 µM (IRAK1): -2.9%
inhibition at 1 µM (IRAK1): 2.1%
inhibition at 0.1 µM (IRAK4): -12.8%
inhibition at 1 µM (IRAK4): 10.7%
inhibition at 0.1 µM (IRE1): -16%
inhibition at 1 µM (IRE1): 1.8%
inhibition at 0.1 µM (JAK1): -9.3%
inhibition at 1 µM (JAK1): 5%
inhibition at 0.1 µM (MAP2K4): -20.5%
inhibition at 1 µM (MAP2K4): 19.2%
inhibition at 0.1 µM (MAP3K1): 6.4%
inhibition at 1 µM (MAP3K1): 44.5%
inhibition at 0.1 µM (MARK2): -4.7%
inhibition at 1 µM (MARK2): 27.3%
inhibition at 0.1 µM (NuaK2): -11.9%
inhibition at 1 µM (NuaK2): 18.1%
inhibition at 0.1 µM (PAN3): -0.2%
inhibition at 1 µM (PAN3): 15.1%
percent inhibition (PCTAIRE2, PCTAIRE3; 0.1 μM): −5.4%
percent inhibition (PCTAIRE2, PCTAIRE3; 1 μM): 24.7%
inhibition at 0.1 µM (PIK3C3): -2.4%
inhibition at 1 µM (PIK3C3): 13.6%
inhibition at 0.1 µM (PIK3CD): -14%
inhibition at 1 µM (PIK3CD): -12.4%
inhibition at 0.1 µM (PIP4K2C; [4]): 3.1%
inhibition at 1 µM (PIP4K2C; [4]): 58.4%
inhibition at 0.1 µM (PIP4K2C; [5]): 9.3%
inhibition at 1 µM (PIP4K2C; [5]): 54.3%
inhibition at 0.1 µM (RSK1 domain1): -26.8%
inhibition at 1 µM (RSK1 domain1): 32.9%
inhibition at 0.1 µM (RSK1 domain2): 2.7%
inhibition at 1 µM (RSK1 domain2): 55.8%
inhibition at 0.1 µM (RSK2 domain2): -10%
inhibition at 1 µM (RSK2 domain2): 21.4%
inhibition at 0.1 µM (SRC): -18.3%
inhibition at 1 µM (SRC): -2.2%
inhibition at 0.1 µM (TLK1): -4.6%
inhibition at 1 µM (TLK1): -3.7%
